# In US5068332A, “Alkylidene analogs of 1'-aminospiro[isoquinoline-4(1H),3'-pyrrolidine]-1,2',3,5'(2H)-tetrones useful as aldose reductase inhibitors” (American Home Products Corporation, priority 1990, dated 1991):
# Tests used:
# [1] = biological target: T1, aldose reductase (Bos taurus, UniProt P16116); experiment: aldose reductase inhibition in vitro (modified Hayman and Kinoshita procedure, enzyme from bovine lens); type: biochemical; conditions: 10^-5 M
# T1 construct: preparation of the enxyme from bovine lens; from tissue; host or cells: bovine lens
# Experimental: (§1) (c) The polyol determination was performed by a modification of the procedure of M. Kraml and L. Cosyns, Clin. Biochem., 2, 373 (1969). Only two minor reagent changes were made: (a) the rinsing mixture was an aqueous 5% (w/v) trichloroacetic acid solution and (b) the stock solution was prepared by dissolving 25 mg of dulcitol in 100 mL of an aqueous trichloroacetic acid solution. [N.B.: For each experiment the average value found in the tissue from rats fed the glucose diet was substracted from the individual values found in the corresponding tissue in galactose-fed rats to obtain the amount of polyol accumulated.] The aldose reductase inhibiting effects of the compounds of formula (I) were also tested by employing an in vitro testing procedure similar to that described by S. Hayman and J.H. Kinoshita, J. Biol. Chem., 240, 877 (1965). In the present case the procedure of Hayman and Kinoshita was modified in that the final chromatography step was omitted in the preparation of the enxyme from bovine lens.
# [2] = test system: dulcitol accumulation; experiment: lowering of galactitol (dulcitol) accumulation in tissues of galactosemic rats in vivo; parameters: species or system rat (male, Sprague-Dawley); conditions: in diet, 4 days; for % Lowering Galactitol Accumulation In Vivo, % (D): diaphragm; for % Lowering Galactitol Accumulation In Vivo, % (L): lens
# Text: The aldose reductase inhibiting property of the compounds of this invention and the utilization of the compounds in preventing, diminishing and alleviating diabetic complications are demonstrable in experiments using galactosemic rats, see Dvornik et al., Science, 182, 1146 (1973). Such experiments are exemplified hereinbelow after the listing of the following general comments pertaining to these experiments:
# (a) Four or more groups of six male rats, 50-70 g, Sprague-Dawley strain, were used. The first group, the control group, was fed a mixture of laboratory chow (rodent Laboratory Chow, Purina) and glucose at 20% (w/w %) concentration. An untreated galactosemic group was fed a similar diet in which galactose was substituted for glucose. The third group was fed a diet prepared by mixing a given amount of the test compound with the galactose containing diet. The concentration of galactose in the diet of the treated groups was the same as that for the untreated galactosemic group.
# (b) After four days, the animals were killed by euthanization. Both the lens and sciatic nerve were removed, weighed and stored frozen for polyol determination.
# as §1
# The figures under L, N, and D represent the percentage decrease of dulcitol accumulation in the tissues of the lens, sciatic nerve, and diaphragm, respectively, for treated rats as compared to untreated rats.
compound,measurement,setting,value
"CC(C)=NN1C(=O)CC2(C(=O)N(Cc3ccc(Br)cc3F)C(=O)c3ccccc32)C1=O (stereo not shown) [2-[(4-bromo-2-fluorophenyl)methyl]-1'-[(1-methylethylidene)amino]spiro[isoquinoline-4(1H),3'-pyrrolidine]-1,2',3,5'(2H)-tetrone]",inhibition at 10 µM,[1],8%
same,"% Lowering Galactitol Accumulation In Vivo, % (D)",[2]; 0.9 mg/kg/day,66%
same,"% Lowering Galactitol Accumulation In Vivo, % (D)",[2]; 10.8 mg/kg/day,86%
same,"% Lowering Galactitol Accumulation In Vivo, % (D)",[2]; 56 mg/kg/day,95%
same,"% Lowering Galactitol Accumulation In Vivo, % (L)",[2]; 10.8 mg/kg/day,30%
same,"% Lowering Galactitol Accumulation In Vivo, % (L)",[2]; 56 mg/kg/day,53%
"O=C1c2ccccc2C2(CC(=O)N(N=C3CCCC3)C2=O)C(=O)N1Cc1ccc(Br)cc1F (stereo not shown) [2-[(4-bromo-2-fluorophenyl)methyl]-1'-(cyclopentylideneamino)spiro[isoquinoline-4(1H),3'-pyrrolidine]-1,2',3,5'(2H)-tetrone]",inhibition at 10 µM,[1],0%
same,"% Lowering Galactitol Accumulation In Vivo, % (D)",[2]; 48 mg/kg/day,95%
same,"% Lowering Galactitol Accumulation In Vivo, % (L)",[2]; 48 mg/kg/day,76%
"CC(C)=NN1C(=O)CC2(C(=O)N(Cc3ccc(Br)cc3F)C(=O)c3ccc(F)cc32)C1=O (stereo not shown) [2-[(4-bromo-2-fluorophenyl)methyl]-6-fluoro-1'-[(1-methylethylidene)amino]spiro[isoquinoline-4(1H),3'-pyrrolidine]-1,2',3,5'(2H)-tetrone]",inhibition at 10 µM,[1],5%
same,"% Lowering Galactitol Accumulation In Vivo, % (D)",[2]; 1.1 mg/kg/day,85%
same,"% Lowering Galactitol Accumulation In Vivo, % (D)",[2]; 27 mg/kg/day,97%
same,"% Lowering Galactitol Accumulation In Vivo, % (L)",[2]; 27 mg/kg/day,58%
"O=C1c2ccccc2C2(CC(=O)N(N=C3CCOCC3)C2=O)C(=O)N1Cc1ccc(Br)cc1F (stereo not shown) [2-[(4-bromo-2-fluorophenyl)methyl]-1'-[(tetrahydro-4H-pyran-4-ylidene)amino]spiro[isoquinoline-4(1H),3'-pyrrolidine]-1,2',3,5'(2H)-tetrone]",inhibition at 10 µM,[1],36%
same,"% Lowering Galactitol Accumulation In Vivo, % (D)",[2]; 56 mg/kg/day,89%
same,"% Lowering Galactitol Accumulation In Vivo, % (L)",[2]; 56 mg/kg/day,44%
"CCC(CC)=NN1C(=O)CC2(C(=O)N(Cc3ccc(Br)cc3F)C(=O)c3ccccc32)C1=O (stereo not shown) [2-[(4-bromo-2-fluorophenyl)methyl]-1'-[(1-ethylpropylidene)amino]spiro[isoquinoline-4(1H),3'-pyrrolidine]-1,2',3,5'(2H)-tetrone]",inhibition at 10 µM,[1],0%
same,"% Lowering Galactitol Accumulation In Vivo, % (D)",[2]; 51 mg/kg/day,93%
same,"% Lowering Galactitol Accumulation In Vivo, % (L)",[2]; 51 mg/kg/day,71%
